IC50 data for 42 compounds are collected here from patent US7868205B2, “Inhibitors of histone deacetylase” (MethylGene Inc., priority 2003, dated 2011).

Experiment [1] deals with HCT116 human colon cancer cells. As to the kind of experiment: MTT assay, antiproliferative activity. Type of experiment: cell-based. The settings on record: HCT-116, 72 hours. How it is done:
Table 6C provides data on inhibition of HDAC1 enzyme, on antiproliferative activities (HCT116 human colon cancer cells) of the compounds using 3-[4,5-dimethylthiazol-2-yl-2,5-diphenyltetrazolium]bromide (MTT) assay, as well as induction of p21^WAF1/Cip1 tumor suppressor gene.
Compounds at various concentrations were added to human colon cancer HCT116 cells plated in 96-well plates. Cells were incubated for 72 hours at 37° C. in 5% CO2 incubator. MTT (3-[4,5-dimethylthiazol-2-yl]-2,5 diphenyl tetrazolium bromide, Sigma) was added at a final concentration of 0.5 mg/ml and incubated with the cells for 4 hours before an equal volume of solubilization buffer (50% N,N-dimethylformamide, 20% SDS, pH 4.7) was added onto cultured cells. After overnight incubation, solubilized dye was quantified by colorimetric reading at […] using a reference at 630 nM. OD values were converted to cell numbers according to a standard growth curve of the relevant cell line. The concentration which reduces cell numbers to 50% of those of DMSO-treated cells is determined as MTT IC50,
In general terms: Tetrazolium assays rely on reduction of a dye to a coloured formazan, in cell work by metabolically active cells.

A further experiment has as its target human HDAC-1 (Homo sapiens, UniProt Q13547). As to the kind of experiment: Inhibition of histone deacetylase enzymatic (HDAC-1) activity. Type of experiment: biochemical. Particulars: for IC50: Table 5, Boc-Lys(Ac)-AMC substrate, 37° C., 20 minutes, read-out: HDAC-1 (μM), inhibition of histone deacetylase. How it is done: The following protocol was used to assay the compounds of the invention.
The mixture was pre-incubated for 5 minutes at room temperature. The reaction was started by bringing the temperature to 37° C. and adding 16 μl substrate.

Where [2] appears, read: Table 6B, comparative data for planar substituent, read-out: HDAC-1 Activity.
Setting [3] is: Table 6A, comparative data for planar substituent, read-out: HDAC-1 activity (μm).

pIC50: −log10 of the molar value. Where two headings read alike, the source gives them in different places.

Chain of human HDAC-1 (Q13547 whole entry): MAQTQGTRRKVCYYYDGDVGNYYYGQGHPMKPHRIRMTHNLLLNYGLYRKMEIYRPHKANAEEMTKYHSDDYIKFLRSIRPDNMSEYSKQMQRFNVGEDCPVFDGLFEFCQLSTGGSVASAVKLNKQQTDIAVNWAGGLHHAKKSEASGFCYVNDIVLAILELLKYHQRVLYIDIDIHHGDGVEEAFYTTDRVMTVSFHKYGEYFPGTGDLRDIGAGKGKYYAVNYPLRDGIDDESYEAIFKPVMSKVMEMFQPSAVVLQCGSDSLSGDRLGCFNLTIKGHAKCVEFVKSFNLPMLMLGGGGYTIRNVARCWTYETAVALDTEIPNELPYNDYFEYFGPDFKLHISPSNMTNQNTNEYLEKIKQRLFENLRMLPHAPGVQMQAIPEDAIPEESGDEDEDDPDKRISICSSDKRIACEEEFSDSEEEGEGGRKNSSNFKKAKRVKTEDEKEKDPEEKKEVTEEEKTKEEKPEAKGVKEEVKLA

For `CN1CCN(C(=O)Nc2ccc(C(=O)Nc3cc(-c4cccs4)ccc3N)cc2)CC1` [Compound 164], the pIC50 (in experiment [1]; against human HDAC-1 (Table 6C)) was greater than 6.00 in each case. In the case of `COc1ccc(NCc2ccc(C(=O)Nc3c(N)cccc3N)cc2)cc1OC` [Cpd 94, N-[2,6-diaminophenyl]-4-{[(3,4-dimethoxyphenyl)amino]methyl}benzamide], the IC50 at human HDAC-1 lay within 1 to 20 µM. As to `Nc1ccc(-c2cccs2)cc1NC(=O)c1ccc(F)cc1` [Compound 143b], the pIC50 was 4.70 to 6.00 in experiment [1] and greater than 6.00 against human HDAC-1 (Table 6C). For `CN(C)CCOc1ccc2nc(SCc3ccc(C(=O)Nc4cc(-c5cccs5)ccc4N)cc3)[nH]c2c1` [Cpd 50, N-[2-amino-5-(2-thienyl)phenyl]-4[({6-[2-(dimethylamino)ethoxy]-1H-benzimidazol-2-yl}thio)methyl]benzamide], at human HDAC-1, the IC50 is less than 1 µM. Take `COc1ccc(NCc2ccc(C(=O)Nc3ccc(Br)cc3N)cc2)cc1OC` [Cpd 18, N-(2-amino-4-bromophenyl)-4-{[(3,4-dimethoxyphenyl)amino]methyl}benzamide]: the IC50 on human HDAC-1 was 1 to 20 µM. In the case of `Nc1ccc(-c2cccs2)cc1NC(=O)c1ccc(SC(F)(F)F)cc1` [Compound 143c], the pIC50 was 4.70 to 6.00 in experiment [1] and greater than 6.00 against human HDAC-1 (Table 6C). In the case of `COc1ccc(NCc2ccc(C(=O)Nc3ccc(-c4cccs4)cc3N)cc2)cc1OC` [Cpd 16, N-[2-amino-4-(2-thienyl)phenyl]-4-{[(3,4-dimethoxyphenyl)amino]methyl}benzamide], the IC50 at human HDAC-1 is 1 to 20 µM. On the same count and under the same terms, the result for `COc1ccc(NCc2ccc(C(=O)Nc3csc(-c4cccs4)c3N)cc2)cc1OC` [Cpd 62, N-(3-amino-2,2′-bithien-4-yl)-4-{[(3,4-dimethoxyphenyl)amino]methyl}benzamide] reads greater than 20 µM; that for `CCCCc1ccc(N)c(NC(=O)c2ccc(CNc3ccc(OC)c(OC)c3)cc2)c1` [Cpd 68, N-(2-amino-5-butylphenyl)-4-{[(3,4-dimethoxyphenyl)amino]methyl}benzamide], 1 to 20 µM. In the case of `COc1cc(NCc2ccc(/C=C/C(=O)Nc3ccccc3N)cc2)cc(OC)c1OC` [QQ, reference compound], the pIC50 at human HDAC-1 (setting [2]) was 4.70 to 6.00. The compound `Nc1ccc(-c2cccs2)cc1NC(=O)c1ccc(CNC(=O)OCc2cccnc2)cc1` [Compound 143a] showed a pIC50 in experiment [1] greater than 6.00. `COc1ccc(NCc2ccc(C(=O)Nc3cc(Br)ccc3N)cc2)cc1OC` [Cpd 87, N-(2-amino-5-bromophenyl)-4-{[(3,4-dimethoxyphenyl)amino]methyl}benzamide]: on human HDAC-1, the IC50 was 1 to 20 µM.

In the case of `COc1ccc(NCc2ccc(C(=O)Nc3cc(-c4cccs4)ccc3[N+](=O)[O-])cc2)cc1OC` [Cpd 5, 4-[(3,4-dimethoxy-phenylamino)-methyl]-N-(2-nitro-5-thiophen-2-yl-phenyl)-benzamide], the IC50 at human HDAC-1 was greater than 20 µM. `COc1cc(OC)c2cc(C(=O)Nc3cc(-c4cccs4)ccc3N)oc2c1` [Compound 245e]: the pIC50 (in experiment [1]; against human HDAC-1 (Table 6C)) was greater than 6.00 throughout. With `Nc1ccc(-c2cccs2)cc1NC(=O)c1ccc(CN2CCOCC2)cc1` [Compound 242], the pIC50 (in experiment [1]; on human HDAC-1 (Table 6C)) was greater than 6.00 in each case. With `COc1ccc(NCc2ccc(C(=O)Nc3cc(C(F)(F)F)ccc3N)cc2)cc1OC` [A, reference compound], the pIC50 at human HDAC-1 (setting [3]) was 4.70 to 6.00.

On to `COc1ccc(NCc2ccc(C(=O)Nc3cc(-c4cccs4)ccc3N)cc2)cc1OC` [Cpd 6, N-[2-amino-5-(2-thienyl)phenyl]-4{[(3,4-dimethoxyphenyl)amino]methyl}benzamide], for which the IC50 at human HDAC-1 is less than 1 µM.

Turning to `COc1ccc(NCc2ccc(C(=O)Nc3ccccc3N)cc2)cc1OC` [AAA, reference compound], the pIC50 on human HDAC-1 (setting [3]) and on human HDAC-1 (setting [2]) was greater than 6.00 in each case. As to `N#Cc1ccc(C(=O)Nc2cc(-c3cccs3)ccc2N)cc1` [Compound 173], the pIC50 in experiment [1] was 4.70 to 6.00; on human HDAC-1 (Table 6C), greater than 6.00. Consider `COc1ccc(NCc2ccc(C(=O)Nc3cc(-c4ccoc4)ccc3N)cc2)cc1OC` [Cpd 91, N-[2-amino-5-(3-furanyl)phenyl]-4-{[(3,4-dimethoxyphenyl)amino]methyl}benzamide], for which the pIC50 on human HDAC-1 was greater than 6.00. Turning to `CCCCc1ccc(NC(=O)c2ccc(C)cc2)c(N)c1` [Cpd 71, N-(2-amino-4-butylphenyl)-4-methylbenzamide], the IC50 on human HDAC-1 was greater than 20 µM. With `COc1cc(NCc2ccc(/C=C/C(=O)Nc3cc(-c4cccs4)ccc3N)cc2)cc(OC)c1OC` [Cpd 67, trans-N-[2-amino-5-(2-thienyl)phenyl]-3-(4-{[(3,4,5-trimethoxyphenyl)amino]methyl}phenyl)acrylamide], the IC50 at human HDAC-1 is less than 1 µM. As to `COc1cc(CN2CCc3ccc(C(=O)Nc4cc(-c5cccs5)ccc4N)cc32)cc(OC)c1OC` [Cpd 23, N-[2-amino-5-(2-thienyl)phenyl]-1-(3,4,5-trimethoxybenzyl)indoline-6-carboxamide], the IC50 on human HDAC-1 was less than 1 µM. For the compound `COc1ccc(NCc2ccc(C(=O)Nc3csc(-c4ccccc4)c3N)cc2)cc1OC` [Cpd 61, N-(4-amino-5-phenyl-3-thienyl)-4-{[(3,4-dimethoxyphenyl)amino]methyl}benzamide], the IC50 at human HDAC-1 is greater than 20 µM.

For `COc1ccc(NCc2ccc(C(=O)Nc3cc(/C=C/C(N)=O)ccc3N)cc2)cc1OC` [Cpd 88, N-{2-amino-5-[(1E)-3-amino-3-oxoprop-1-en-1-yl]phenyl}-4-{[(3,4-dimethoxyphenyl)amino]methyl}benzamide], the IC50 at human HDAC-1 lay in the range of 1 to 20 µM. `CC(=O)Oc1ccc(C(=O)Nc2cc(-c3cccs3)ccc2N)cc1` [Compound 184]: the pIC50 (in experiment [1]; against human HDAC-1 (Table 6C)) was greater than 6.00 throughout.

Turning to `Nc1ccc(-c2cccs2)cc1NC(=O)c1ccc2[nH]cnc2c1` [Compound 258d], the pIC50 (in experiment [1]; on human HDAC-1 (Table 6C)) was greater than 6.00 each time. In the case of `COc1ccc(NCc2ccc(C(=O)Nc3cc(Cl)c(Cl)cc3N)cc2)cc1OC` [Cpd 36, N-(2-Amino-4,5-dichloro-phenyl)-4-[(3,4-dimethoxy-phenylamino)-methyl]-benzamide], on human HDAC-1, the IC50 was in the range of 1 to 20 µM.

Regarding `Nc1ccc(-c2cccs2)cc1NC(=O)c1ccc2c(c1)OCCO2` [Compound 256b], the pIC50 (in experiment [1]; at human HDAC-1 (Table 6C)) was greater than 6.00 throughout. With `COc1ccc(NCc2ccc(C(=O)Nc3cc(-c4cccs4)ccc3N)cc2)cc1F` [Cpd 12, N-[2-amino-5-(2-thienyl)phenyl]-4{[(3-fluoro-4-methoxyphenyl)amino]methyl}benzamide], the IC50 at human HDAC-1 is less than 1 µM. Consider `Cn1cnc2cc(C(=O)Nc3cc(-c4cccs4)ccc3N)ccc21` [Compound 283], for which the pIC50 (in experiment [1]; at human HDAC-1 (Table 6C)) was greater than 6.00 in each case.

For `COc1ccc(NCc2ccc(C(=O)Nc3cc(C#CCO)ccc3N)cc2)cc1OC` [Cpd 76, N-[2-amino-5-(3-hydroxyprop-1-yn-1-yl)phenyl]-4-{[(3,4-dimethoxyphenyl)amino]methyl}benzamide], the IC50 at human HDAC-1 was less than 1 µM. Regarding `COc1ccc(NCc2ccc(C(=O)Nc3cc(F)c(F)cc3N)cc2)cc1OC` [B, N-(2-amino-4,5-difluorophenyl)-4-{[(3,4-dimethoxyphenyl)amino]methyl}benzamide, reference compound], the IC50 on human HDAC-1 lay within 1 to 20 µM. For `COc1ccc(NCc2ccc(C(=O)Nc3ccc(-c4cccs4)cc3[N+](=O)[O-])cc2)cc1OC` [Cpd 15, 4-[(3,4-dimethoxy-phenylamino)-methyl]-N-(2-nitro-4-thiophen-2-yl-phenyl)-benzamide], on human HDAC-1, the IC50 was greater than 20 µM.

For the compound `COc1cc(C(=O)Nc2cc(-c3cccs3)ccc2N)cc2c1OCO2` [Compound 256c], the pIC50 (in experiment [1]; at human HDAC-1 (Table 6C)) was greater than 6.00 each time. With `CCCCc1ccc(N)c(NC(=O)c2ccc(C)cc2)c1` [Cpd 69, N-(2-amino-5-butylphenyl)-4-methylbenzamide], the IC50 at human HDAC-1 was 1 to 20 µM. Turning to `Cc1ccc(S(=O)(=O)Nc2ccc(/C=C/C(=O)Nc3cc(-c4cccs4)ccc3N)cc2)cc1` [Compound 146], the pIC50 (in experiment [1]; on human HDAC-1 (Table 6C)) was greater than 6.00 each time. For the compound `Cn1nnc2cc(C(=O)Nc3cc(-c4cccs4)ccc3N)ccc21` [Compound 286], the pIC50 in experiment [1] is 4.70 to 6.00; against human HDAC-1 (Table 6C), greater than 6.00. As to `COc1cc(NCc2ccc3oc(C(=O)Nc4cc(-c5cccs5)ccc4N)cc3c2)cc(OC)c1OC` [Cpd 29, N-[2-amino-5-(2-thienyl)phenyl]-5-{[(3,4,5-trimethoxyphenyl)amino]methyl}-1-benzofuran-2-carboxamide], on human HDAC-1, the IC50 was less than 1 µM. On to `COc1ccc(NCc2ccc(C(=O)Nc3cc(Cl)c(F)cc3N)cc2)cc1OC` [Cpd 35, N-(2-Amino-5-chloro-4-fluoro-phenyl)-4-[(3,4-dimethoxy-phenylamino)-methyl]-benzamide], for which, on human HDAC-1, the IC50 fell in the range of 1 to 20 µM. For the compound `Nc1ccc(-c2cccs2)cc1NC(=O)c1ccc(CNc2nccc(-c3cccnc3)n2)cc1` [Cpd 43, N-[2-amino-5-(2-thienyl)phenyl]-4{[(4-pyridin-3-ylpyrimidin-2-yl)amino]methyl}benzamide], the IC50 at human HDAC-1 was less than 1 µM. Same read-out and setting: to `COc1ccc(NCc2ccc(C(=O)Nc3cccc(-c4cccs4)c3)cc2)cc1OC` [Cpd 32, 4-{[(3,4-dimethoxyphenyl)amino]methyl}-N-[3-(2-thienyl)phenyl]benzamide] belongs greater than 20 µM.
